Key:
[1] = Liver pharmacokinetics following a single oral dose in CD-1 mice; format: in vivo; settings: single oral dose 25 mg/kg in PEG 200, CD-1 male mice; given at 1 μmol/kg; 25 mg/kg
Description: (§1) A single oral dose of test compound at 25 mg/kg in PEG 200 (dose volume 5 mL/kg) was administered to nine CD-1 male mice. Five untreated animals were used for the collection of control plasma and liver. Terminal plasma and liver samples were collected from three animals per time point at 4, 12 and 24 hours post dose. Liver specimens were collected from all animals immediately after the incision. Freezing forceps stored in liquid nitrogen were used to freeze the liver before excision.
Liver samples were analyzed for the active species 2′-methylguanosine triphosphate (2′-MeGTP) by LC-MS/MS. 2′-MeGTP levels were assayed by homogenizing (on ice) a known weight of mouse liver with 4× volume of 0.95 M trichloroacetic acid (TCA). Internal standard solution was added to the homogenate followed by neutralization with 20% ammonium hydroxide solution and addition of 500 μL 1% formic acid. The tissue samples were extracted by weak anion exchange solid phase extraction (SPE). Post extraction, the eluates were evaporated under nitrogen, followed by reconstitution before injection onto the LC-MS/MS system. The samples were chromatographed on a Luna NH2 column using a gradient system of ammonium acetate (1 mM to 20 mM and pH 8.0 to pH 10.0) in water and acetonitrile (70:30). The analyte was detected and quantified by tandem mass spectrometry in positive ion mode on an API4000 equipped with a Turbo Ionspray® interface. The calibration range was 10 to 10000 pmol/mL in mouse liver homogenate (50 to 50000 pmol/g of mouse liver).

[2] = Stability in simulated intestinal fluid; format: in vitro ADME; settings: 100 μM, 2 hours at 37° C., percent of the peak area at time zero
Description: (§2) Simulated gastric and intestinal fluids containing pepsin and pancreatin respectively were prepared according to the U.S. Pharmacopoeia USP291 procedure (www.pharmacopeia.cn/v29240/usp29nf24s0_ris1s126.html). Compounds (final concentration 100 μM) were incubated in duplicate in the appropriate fluid for 2 hours at 37° C. The samples were quenched with 200 μl cold acetonitrile, vortexed for 30 seconds and then centrifuged at 16,100 g for 10 min. The supernatants were analyzed by HPLC on a C-18 column with UV detection at 252 nm. The time 0 samples were prepared by adding SGF or SIF fluid to the quenching solvent followed by the test compound. Stability of the compounds was determined by peak area of the test compounds after incubation and calculated as percent of the peak area observed at time zero.

[3] = in vitro; settings: human, HCV Replicon CC50, Zluc cells, CellTiter-Blue
[4] = Stability in fresh human whole blood; format: in vitro ADME; settings: 0.5 μM, percent unchanged test compound
Description: (§3) Stability of compounds were determined in fresh human whole blood with K2EDTA as the anticoagulant (stored refrigerated at 2-8° C. and used within 7 days of receipt). The experiment was conducted with three replicates for each time point. Whole blood, pre-incubated at 37° C. for 10-15 minutes, was fortified with a solution of test compound for a final concentration of 0.5 μM and mixed for 30 sec. At intervals (0, 0.5, 1 and 2 hr), three 50 μL aliquots were combined with 200 μL (each) of an ice-cold solution of the internal standard (carbutamide 500 ng/mL in acetonitrile). The samples were vortexed for 30 sec and then centrifuged at 16,100 g for 5 min. The supernatant was analyzed by LC-MS/MS. The MS peak area ratio of the test compounds versus the internal standard was calculated and percent unchanged test compound was calculated for each time point using this ratio.

[5] = test system: mouse hepatocytes; experiment: Release of active metabolite in mouse hepatocytes; format: in vitro ADME; settings: 10 μM compound
Description: Plates of fresh human and mouse hepatocytes were obtained on ice. The medium was removed and replaced with hepatocyte culture medium (William's E supplemented with penicillin-streptomycin, 1% L-glutamine, 1% insulin-transferrin-selenium and 0.1 μM Dexamethasone (Invitrogen) or with Invitro GRO HI medium complemented with Torpedo antibiotics (Celsis)). Cells were left overnight in an incubator at 37° C. to acclimatize to culture and the medium.
Hepatocyte incubations were conducted at a final volume of 0.5 mL hepatocyte culture medium/well (0.8 million cells/well for human and 0.5 million cells/well for mouse; 12 well plate no overlay, collagen coat). Culture medium from overnight incubation of cells was removed and replaced with fresh medium, pre-warmed to 37° C., containing 10 μM of test compound from a stock solution in DMSO (final DMSO concentration was 0.1%). At each specific time point, incubation medium was removed and cell monolayers were carefully washed two times with ice-cold PBS. Following the last wash, all PBS was carefully removed and 1.0 mL of extraction solution (ice-cold 70% methanol/30% water) added. Cells were scraped off and suspended in the extraction solution, transferred to 2 mL polypropylene microfuge tubes and intracellular contents extracted overnight at −20° C.
After the overnight treatment the cellular extracts were prepared by centrifugation at 16,000×g for 10 min to remove cellular debris. The remaining sample was then dried using a refrigerated centrivap concentrator. Dry extracts were reconstituted in 1000 μL of HPLC-grade water and centrifuged at 16,000×g for 10 min. Aliquots (100 μL each) of the supernatant were transferred into a 96 well plate and internal standard (4 ng/mL final concentration) was added as the internal standard (IS) for LC-MS/MS analysis.
The incubation time points were 6, 24 and 48 hours for human hepatocytes and 1, 4, 8, 12 and 24 hours for mouse hepatocytes.

[6] = Stability in mouse blood; format: in vitro ADME; settings: on ice, percent unchanged test compound
Description: as §3
The stability in mouse blood was determined on ice at 0, 0.5 and 1 hr as herein.

[7] = Plasma pharmacokinetics following a single oral dose in CD-1 mice; format: in vivo; settings: single oral dose 25 mg/kg in PEG 200, CD-1 male mice; given at 1 μmol/kg; 25 mg/kg
Description: as §1
Plasma samples were analyzed for 2′-methylguanosine (2′-MeG) by LC-MS/MS. The internal standard (IS) was 2′-MeG-D3. For protein precipitation and extraction, each plasma sample (50 μL) was treated with 500 μL of 0.2% formic acid in acetonitrile and 20 μL of the internal standard working solution. After vortexing and centrifugation, 500 μL of the sample extracts were transferred to a new plate, dried under N2 at ˜28° C. and reconstituted with 75 μL of 0.2% FA in water. The extracts were chromatographed on an Aquasil C18 column using a gradient system of 0.2% formic acid in water and acetonitrile. The analytes were detected and quantified by tandem mass spectrometry in positive ion mode on an MDS Sciex API5000 equipped with a Turbo Ionspray® interface. The calibration range was 0.500 (LLOQ) to 200 ng/mL in mouse plasma.

[8] = test system: HCV genotype 1b replicon; experiment: HCV Replicon Assay; format: cell-based; settings: Hepatitis C virus, 72 h, Zluc cells (Huh-7-derived, HCV genotype 1b replicon, luciferase reporter), 72 hours; read-out: HCV Replicon EC50
Method in brief: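 Zluc Huh-7 cells with HCV genotype 1b replicon and luciferase reporter treated with 5-fold dilutions (100 μM to 0.0000512 μM final) in duplicate, or at 1 and 10 μM. Luminescence read with ONE-glo; EC50 from dose-response fits, or % inhibition at the fixed concentrations.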

[9] = Stability in simulated gastric fluid; format: in vitro ADME; settings: 100 μM, 2 hours at 37° C., percent of the peak area at time zero
Description: as §2

[10] = test system: fresh human hepatocytes; experiment: Release of active metabolite in fresh human hepatocytes; format: in vitro ADME; settings: 10 μM compound; for FHH TP Cmax: fresh human hepatocytes; for FHH TP AUC: fresh human hepatocytes, 6, 24 and 48 hours
Method in brief: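 Overnight-acclimatized hepatocytes (0.8 million cells/well human, 0.5 million mouse) incubated at 37 °C with 10 μM test compound (0.1% DMSO). Sampled at 6, 24, 48 h (human) or 1, 4, 8, 12, 24 h (mouse); cells washed, extracted in cold 70% methanol, intracellular content quantified by LC-MS/MS with internal standard.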

[11] = test system: Huh-7 cells; experiment: Release of active metabolite in Huh-7 cells; format: in vitro ADME, human; settings: 10 μM compound
Description: Huh-7 cells were plated in 1 mL culture medium (DMEM, containing glucose, L-glutamine and sodium pyruvate, 10% FBS, 100 IU/mL penicillin, 100 μg/mL streptomycin, 2 mM GlutaMAX, 1% MEM non-essential amino acids) at the concentration 0.8, 0.4 and 0.2 million cells per well on 6 well plates for 24, 48 and 72 hr treatment, respectively. Plated cells were incubated overnight at 37° C. in an incubator.
The following morning compounds was diluted to 20 μM from a stock solution in DMSO in fresh culture medium pre-warmed to 37° C. and 1 mL of the solution/well was added to cells. A final medium volume per well was 2.0 mL, Compound concentration in well was 10 μM and final DMSO concentration was 0.1%.
After 24, 48 or 72 hr, the medium was carefully removed and cell monolayers were washed twice with 2 mL ice-cold PBS per well. Following the last wash, all PBS was carefully removed and 1.0 mL of extraction solution (ice-cold 70% methanol) added. The plate was tightly covered with Parafilm, plastic plate cover and Parafilm again and an intracellular content was extracted at −20° C. for 24 hr.
After 24 hr extracts were transferred into polypropylene microfuge tubes and dried on a refrigerated centrivap concentrator. Dry residues were reconstituted in 250 μL of HPLC-grade water and centrifuged at 16,000×g for 10 min. Aliquots (100 μL each) of the supernatants were transferred into a 96 well plate and internal standard (4 ng/mL final concentration) was added as the internal standard (IS) for LC-MS/MS analysis.

SMILES	Ms Liver 2′-MeGTP AUC [1] [pmol · hr/g at 1 μmol/kg]	Stability SIF [2] [%]	CC50 [3] [µM]	Stability WB_Human (37° C.; 2 hr) [4] [%]	MsH Cmax ([5]; mouse hepatocytes) [pmol/mill cells]	MsH AUC ([5]; mouse hepatocytes, 1, 4, 8, 12 and 24 hours) [pmol · hr/mill cells]	Stability WB_Mouse (ice; 1 hr) [6] [%]	Ms Plasma 2′-MeG AUC [7] [pmol · hr/mL at 1 μmol/kg]	Ms Plasma 2′-MeG Cmax [7] [pmol/mL at 1 μmol/kg]	EC50 [8] [µM]	Stability SGF [9] [%]	FHH TP Cmax [10] [pmol/mill cells]	FHH TP AUC [10] [pmol · hr/mill cells]	Huh-7 TP (24 hr) ([11]; 24 hr)	Huh-7 TP (48 hr) ([11]; 48 hr)	Huh-7 TP (72 hr) ([11]; 72 hr)	Huh-7 TP AUC ([11]; Huh-7 cells) [pmol/mill cells]
CCOc1nc(N)nc2c1ncn2[C@@H]1O[C@@H]2COP(=O)(OCCSC(=O)C(C)(C)CO)O[C@H]2[C@@]1(C)F (single isomer, unassigned) [Compound 5 Diastereomer 1]	1200	86	> 50	82	374	9866	99	97	8.1	< 0.25	108	204	7185				
CCOC(=O)CCCOP1(=O)OC[C@H]2O[C@@H](n3cnc4c(OC)nc(N)nc43)[C@](C)(O)[C@@H]2O1 (single isomer, unassigned; diastereomer 1) [Compound 25 Diastereomer 1]												1137	2245	25	28	36	1697
CCOc1nc(N)nc2c1ncn2[C@@H]1O[C@@H]2COP(=O)(OCCSSC(C)(C)C)O[C@H]2[C@@]1(C)F (single isomer, unassigned) [Compound 24 Diastereomer 1]		90	< 50	91						< 0.25	87	154	3399				
